Key:
acute toxicity (LD50) = assay: acute toxicity (LD50); design: species or system rats; conditions: rat, in vivo
Method: Acute toxicity (LD50) has been studied in rats, the substance being administered intraperitoneally and perorally. […] LD50 of the substance administered perorally to rats (males and females) - 2464,8 mg/kg, of the pharmaceutical form - 3185,8 mg/kg.

dogs = assay: chronic toxicity; format: in vivo; conditions: 28 dogs, perorally in doses 50, 250 and 500 mg/kg
rats [1] = assay: toxicity study, blood and biochemical parameters at 50 and 100 mg/kg; format: in vivo
rats [2] = assay: chronic toxicity; format: in vivo; conditions: 160 rats, perorally in doses 50, 250 and 500 mg/kg
rabbits = assay: toxicity study, blood and biochemical parameters at 50 and 100 mg/kg; format: in vivo
rats [3] = assay: hemodynamics parameters estimated by direct method; format: in vivo
Method: In the other study parameters of hemodynamics in rats exposed to PhP have been estimated (minute cardiac supply, cardiac index, cardiac output, heart rate). Hemodynamics parameters have been estimated by direct method on the fourth day after PhP administration in dose 50 mg/kg.

[4] = tested on: rats with experimental myocardial infarction; assay: experimental myocardial infarction after occlusion of the descending branch of the left coronary artery (LAD), morphometry of ischemia and injury zones; format: in vivo; conditions: for Area of the injury zone: ischemia zone plus necrosis zone; for Area of the injury zone / Area of the necrosis zone / Ratio: necrosis zone /myocard / Ratio: necrosis/ ischemia / Area of the myocardial zone / Area of the ischemia zone / Ratio: ischemia zone/ myocard: third day, PhP 50 mg/kg intraperitoneally 30 minutes before LAD occlusion; for Area of the injury zone / Area of the necrosis zone / Ratio: necrosis zone /myocard / Ratio: necrosis/ ischemia / Area of the ischemia zone / Ratio: ischemia zone/ myocard: Obzidan 0.5 mg/kg; for Area of the injury zone / Area of the ischemia zone / Ratio: ischemia zone/ myocard: * p<0.05 vs physiological solution; for Area of the myocardial zone: Obzidan 0.5 mg/kg 30 minutes before
Method: The study on 4-phenyl-2-pyrrolidinone-1-acetic acid amide anti-ischemic activity has been carried out in model of experimental myocardial infarction caused by the experimental myocardial infarction after the descending branch of the left coronary artery (LAD) occlusion in rats. 4-phenyl-2-pyrrolidinone-1-acetic acid amide was administered intraperitoneally in dose 50 mg/kg 30 minutes before the LAD-occlusion. Anti-ischemic activity of the substance was assessed on the third day after its administration by estimation of the area of necrosis, the area of ischemia and the total myocardial necrosis zone (area of necrosis plus area of ischemia). Ischemia zone and myocardial injury zones were assessed by morphometry methods. Results obtained in the experimental animals' groups exposed to the substance were compared with results obtained in animals, exposed to Obzidan and physiological solutionin (PhS) in dose 0.5 mg/kg, administered 30 minutes before the LAD occlusion.

[5] = 4th day after PhP administration, dose 50 mg/kg
[6] = PhP 50 mg/kg intraperitoneally, compared with physiological solution

NC(=O)CN1CC(c2ccccc2)CC1=O (stereo not drawn) [PhP, 4-phenyl-2-pyrrolidinone-1-acetic acid amide]
LD50 (acute toxicity (LD50); ip, rats, females, administered intraperitoneally): 522 mg/kg | LD50 (acute toxicity (LD50); ip, rats, males, administered intraperitoneally): 538 mg/kg | LD50 (acute toxicity (LD50); po, rats (males and females), administered perorally): 2460 mg/kg | changes of peripheral blood and heart, kidney and liver functions (dogs): absence of significant changes | parameters of the peripheral blood, composition of electrolytes and other biochemical parameters (rats [1]): does not influence | changes of peripheral blood and heart, kidney and liver functions (rats [2]): absence of significant changes | parameters of the peripheral blood, composition of electrolytes and other biochemical parameters (rabbits): does not influence | Cardiac index (rats [3]; [5]): 133.8 ±9.8 % in comparison with source data before PhP administration | Cardiac output (rats [3]; [5]): 161.8±12.7 % in comparison with source data before PhP administration | Heart rate (rats [3]; [5]): 115.4±3.1 % in comparison with source data before PhP administration | Minute cardiac supply (rats [3]; [5]): 110.8±3.2 % in comparison with source data before PhP administration | inotrop effect (rats [3]; PhP 50 mg/kg): not followed by any negative inotrop effect | Anti-ischemic effect ([4]; PhP 50 mg/kg compared with Obzidan 0.5 mg/kg): exceeded the one of Obzidan | area of ischemia zone (result in words) [4, 6]: statistically significantly reduced | area of the total injury zone (ischemia zone plus necrosis zone) (result in words) [4, 6]: statistically significantly reduced | area of myocardial necrosis (result in words) ([4]; PhP 50 mg/kg intraperitoneally, not statistically significant): nearly twice reduced | Area of the injury zone [4]: 182,53 MM^2 | Area of the necrosis zone [4]: 19,21 mm^2 | Ratio: necrosis zone /myocard [4]: 0,039± | Ratio: necrosis/ ischemia [4]: 0,113± | Area of the myocardial zone [4]: 492,55 mm^2 | Area of the ischemia zone [4]: 163,33 mm^2 | Ratio: ischemia zone/ myocard [4]: 0,332±

CC(C)NCC(O)COc1cccc2ccccc12 (stereo not drawn) [Obzidan, reference compound]
Area of the injury zone [4]: 203,68 MM^2 | Area of the necrosis zone [4]: 28,48 mm^2 | Ratio: necrosis zone /myocard [4]: 0,059± | Ratio: necrosis/ ischemia [4]: 0,163± | Area of the myocardial zone [4]: 481,13 mm^2 | Area of the ischemia zone [4]: 175,21 mm^2 | Ratio: ischemia zone/ myocard [4]: 0,365±

Reference: EP1203585A1, “ANTI-ISCHEMIC AGENT” (Zakrytoe Aktsionernoe Obschestvo " Asgl-Issledovatelskie …, priority 1999, dated 2001)
